From patent US9777017B2, “Tricyclic fused thiophene derivatives as JAK inhibitors” (Incyte Corporation, priority 2012, dated 2017)
Where a name gives a salt, the structure may show the parent alone.

Key:
Format in all cases: biochemical
human JAK1 [1] = experiment: In vitro JAK kinase assay (HTRF, phosphorylation of a biotinylated peptide), JAK1; design: key to JAK1 IC50 (nM): +indicates an IC50 of ≦100 nM; ++indicates an IC50 of ≦1000 nM; +++indicates an IC50 of ≦2000 nM; ++++indicates an IC50 of >2000 nM; +++++indicates that the IC50 was greater than the highest concentration tested; conditions: ratio of IC50s, 1 mM ATP
Method: (§1) Compounds herein were tested for inhibitory activity of JAK targets according to the following in vitro assay described in Park et al., Analytical Biochemistry 1999, 269, 94-104. The catalytic domains of human JAK1 (a.a. 837-1142), JAK2 (a.a. 828-1132) and JAK3 (a.a. 781-1124) were expressed using baculovirus in insect cells and purified. The catalytic activity of JAK1, JAK2 or JAK3 was assayed by measuring the phosphorylation of a biotinylated peptide. The phosphorylated peptide was detected by homogenous time resolved fluorescence (HTRF). IC50s of compounds were measured for each kinase in the 40 μL reactions that contain the enzyme, ATP and 500 nM peptide in 50 mM Tris (pH 7.8) buffer with 100 mM NaCl, 5 mM DTT, and 0.1 mg/mL (0.01%) BSA. For the 1 mM IC50 measurements, ATP concentration in the reactions was 1 mM. Reactions were carried out at room temperature for 1 hour and then stopped with 20 μL 45 mM EDTA, 300 nM SA-APC, 6 nM Eu-Py20 in assay buffer (Perkin Elmer, Boston, Mass.). Binding to the Europium labeled antibody took place for 40 minutes and HTRF signal was measured on a PHERA star plate reader (BMG, Cary, N.C.). The Example compounds were each tested in the Example A assay (see Table 1 for data for the compounds of the examples as tested by the assay of Example A at 1 mM ATP).

human JAK2 = human JAK2 (Homo sapiens (Human), UniProt O60674); experiment: In vitro JAK kinase assay (HTRF, phosphorylation of a biotinylated peptide), JAK2; design: key to JAK2 IC50 (nM): +indicates an IC50 of ≦100 nM; ++indicates an IC50 of ≦1000 nM; +++indicates an IC50 of ≦2000 nM; ++++indicates an IC50 of >2000 nM; +++++indicates that the IC50 was greater than the highest concentration tested; conditions: 1 mM ATP
Method: as §1

human JAK1 [2] = target: human JAK1 (Homo sapiens, UniProt P23458); experiment: In vitro JAK kinase assay (HTRF, phosphorylation of a biotinylated peptide), JAK1; design: key to JAK1 IC50 (nM): +indicates an IC50 of ≦100 nM; ++indicates an IC50 of ≦1000 nM; +++indicates an IC50 of ≦2000 nM; ++++indicates an IC50 of >2000 nM; +++++indicates that the IC50 was greater than the highest concentration tested; conditions: 1 mM ATP
Method: as §1

Sequence of human JAK2 (O60674 828-1132): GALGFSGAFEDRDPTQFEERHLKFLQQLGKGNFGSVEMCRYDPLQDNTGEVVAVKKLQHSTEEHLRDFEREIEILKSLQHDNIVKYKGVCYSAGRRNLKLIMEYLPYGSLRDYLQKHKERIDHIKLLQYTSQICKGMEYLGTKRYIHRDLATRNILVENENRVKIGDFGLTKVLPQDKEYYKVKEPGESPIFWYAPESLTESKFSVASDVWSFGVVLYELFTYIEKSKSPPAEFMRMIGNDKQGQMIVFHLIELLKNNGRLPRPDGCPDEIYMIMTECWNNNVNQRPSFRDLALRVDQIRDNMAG

Row | Molecule | JAK2/JAK1 (human JAK1 [1]) | IC50 (human JAK2) | IC50 (human JAK1 [2]) | JAK2 IC50 (nM) (human JAK2) | JAK1 IC50 (nM) (human JAK1 [2])
1 | Cc1nc2cnc3ccsc3c2n1[C@@H]1CC[C@@H](CC#N)[C@@H](O)C1 (mixture of isomers) [Example 34, Mixture of [(1R,2R,4S)-2-hydroxy-4-(2-methyl-1H-imidazo[4,5-d]thieno[3,2-b]pyridin-1-yl)cyclohexyl]acetonitrile trifluoroacetate and [(1S,2S,4R)-2-hydroxy-4-(2-methyl-1H-imidazo[4,5-d]thieno[3,2-b]pyridin-1-yl)cyclohexyl]acetonitrile trifluoroacetate] | >10 |  |  |  | 
2 | CCc1nc2cnc3ccsc3c2n1[C@H]1CC[C@H](CC#N)[C@H](O)C1 (racemic) [Example 35] |  | > 2000 nM | ≤ 100 nM |  | 
3 | C[C@@H](O)c1nc2cnc3ccsc3c2n1C1CCNCC1F (single isomer, unassigned) [9 (2nd peak)] | >10 |  |  | +++++ | 
4 | C[C@@H](O)c1nc2cnc3ccsc3c2n1C1CCC(O)(CC#N)CC1 (single isomer, unassigned) [24 (first peak)] | >10 | > 2000 nM | ≤ 100 nM |  | 
5 | C[C@@H](O)c1nc2cnc3ccsc3c2n1C1CCC(O)(CC#N)CC1 (single isomer, unassigned) [24 (second peak)] |  |  | ≤ 1000 nM |  | 
6 | C[C@@H](O)c1nc2cnc3ccsc3c2n1C1CCC(NCCC#N)CC1 (single isomer, unassigned) [30 (first peak)] | >2 | > 2000 nM | ≤ 1000 nM |  | 
7 | C[C@@H](O)c1nc2cnc3ccsc3c2n1C1CCC(NCCC#N)CC1 (single isomer, unassigned) [30 (second peak)] | >10 |  | ≤ 2000 nM | +++++ | 
8 | N#CCC1CCC(CO)(n2cnc3cnc4ccsc4c32)CC1 (single isomer, unassigned) [72 (second peak), [4-(Hydroxymethyl)-4-(1H-imidazo[4,5-d]thieno[3,2-b]pyridin-1-yl)cyclohexyl]acetonitrile] | >5 | ≤ 1000 nM | ≤ 100 nM |  | 
9 | C[C@@H](O)c1nc2cnc3ccsc3c2n1C1CCNCC1F (stereo partly drawn) [9 (1st peak), (1R)-1-[1-(3-Fluoropiperidin-4-yl)-1H-imidazo[4,5-d]thieno[3,2-b]pyridin-2-yl]ethanol] |  |  |  | +++++ | +++++
10 | C[C@@H](O)c1nc2cnc3ccsc3c2n1[C@H]1CC[C@H](CC#N)CC1 [Example 2, (trans-4-{2-[(1R)-1-Hydroxyethyl]-1H-imidazo[4,5-d]thieno[3,2-b]pyridin-1-yl}cyclohexyl)acetonitrile] | >10 |  |  |  | 
11 | C[C@@H](O)c1nc2cnc3ccsc3c2n1[C@H]1CCCN(C(=O)CCC(F)(F)F)C1 [Example 52, (1R)-1-{1-[(3S)-1-(4,4,4-Trifluorobutanoyl)piperidin-3-yl]-1H-imidazo[4,5-d]thieno[3,2-b]pyridin-2-yl}ethanol] | >10 |  | ≤ 1000 nM |  | 
12 | Cc1nn2cnc3ccsc3c2c1[C@H]1CC[C@H](CC#N)CC1 [Example 77, [trans-4-(8-Methylpyrazolo[1,5-c]thieno[2,3-e]pyrimidin-9-yl)cyclohexyl]acetonitrile] |  | ≤ 100 nM | ≤ 100 nM |  | 
13 | [(1R,2S,4S)-4-(2-Ethyl-1H-imidazo[4,5-d]thieno[3,2-b]pyridin-1-yl)-2-hydroxycyclohexyl]acetonitrile and [(1S,2R,4R)-4-(2-ethyl-1H-imidazo[4,5-d]thieno[3,2-b]pyridin-1-yl)-2-hydroxycyclohexyl]acetonitrile [40 (second peak)] |  |  | > 2000 nM | +++++ | 
14 | [(1R,2S,4S)-4-(2-Methyl-1H-imidazo[4,5-d]thieno[3,2-b]pyridin-1-yl)-2-hydroxycyclohexyl]acetonitrile and [(1S,2R,4R)-4-(2-methyl-1H-imidazo[4,5-d]thieno[3,2-b]pyridin-1-yl)-2-hydroxycyclohexyl]acetonitrile [41 (second peak)] |  |  | > 2000 nM | +++++ | 
